Marks after values point to notes of the source that are not given here.
Experiments:
Format in all cases: in vivo
[1] = system: CCI-induced neuropathic pain; experiment: Chronic constriction injury (CCI) model in mice, SC route; conditions: for Dose of maximum activity / Duration of activity at maximum effect / Level of activity (% of maximum effect-baseline) / Peak of activity (T): CCl model, SC, mice
Protocol: Study outline in brief: The sciatic nerve of mice was exposed under anesthesia, and 3 loose ligations were placed around the nerve. Animals were allowed to recover for 3 days. Tactile allodynia (von Frey testing) and thermal (hot at 50±1° C. and cold at 2±1° C.) hyperalgesia were then assessed. Animals that experienced tactile allodynia were assigned to their treatment groups (vehicle, gabapentin and Formula 1 at different doses). Animals were subsequently treated daily for a period of 5 days with either vehicle or Formula 1 at different doses. Gabapentin at a dose of 150 mg/kg was dosed only on days of testing (day 3 and day 7).

[2] = system: Taxol-induced neuropathic pain; experiment: Taxol-induced neuropathic pain in mice, oral route
Protocol: (§1) Study outline in brief: Animals were dosed daily with Taxol for a period of 8 consecutive days (Day 0 to Day 7). On study day 8, prior to drug dosing, the decrease in withdrawal force (tactile allodynia) was verified by applying the von Frey test. After assigning the animals to their treatment groups, the animals were treated daily for a period of 5 days with either vehicle or Formula 1 at different doses. Gabapentin at a dose of 150 mg/kg was dosed only on days of testing (day 8 and day 14).
The activity of Formula 1 following oral administration was assessed using the Taxol model (see Study Outline in section 7.1). […] Gabapentin dosed at 150 mg/kg was active for a period of 4 h post-dosing.

[3] = system: CCI-induced neuropathic pain; experiment: CCI model in mice, IP route; conditions: CCl model
Source text: IP route of administration was used for initial proof of principle studies with Formula 1. However, the chosen route of administration in most of the studies conducted with Formula 1 was either SC or PO. A brief protocol outline is provided in each section, for the purpose of understanding the results without elaborating on all the detailed procedures.
Table 7 summarizes the activity of Formula 1 in mice models of neuropathic pain following repeated daily administration using different routes of administration. […] Treatment with Formula 1 show activity without CNS effect.

[4] = system: Taxol-induced neuropathic pain; experiment: Taxol-induced neuropathic pain in mice, SC administration
Protocol: as §1
Response to heat stimuli was assessed using the hotplate apparatus set at 50ΥC. […] At baseline prior to Taxol dosing, the animals' response time to heat was 28.10±1.60 sec (vehicle-treated group). […] However, it is interesting to note that the beneficial activity of Formula 1 on heat hyperalgesia was more noticeable on study day 14, following repeated daily dosing of the compound, than on study day 8 following a single dose (Table 6).

NCC1(CC(=O)O)CCCCC1 [Gabapentin, gabapentin, reference compound]
response time to cold plate ([1]; CCI mice, 150 mg/kg): increased the response time of the animals to values that were higher than the baseline value
withdrawal force (von Frey) ([1]; CCI mice, 150 mg/kg): significant, but not complete, reversal
Dose of maximum activity ([1]; first SC line): 150 mg/kg
Duration of activity at maximum effect ([1]; first SC line): 4-6 H
Level of activity (% of maximum effect-baseline) ([1]; first SC line): 64%
Peak of activity (T) ([1]; first SC line): 2-3 H
Level of activity (% of maximum effect-baseline) ([1]; second SC line (readout not given)): >100%
Dose of maximum activity ([1]; second SC line): 150 mg/kg
Duration of activity at maximum effect ([1]; second SC line): 4-6 H
Peak of activity (T) ([1]; second SC line): 2-3 H
period of activity post-dosing ([2]; Taxol mice, 150 mg/kg): 4 h
Dose of maximum activity ([2]; Taxol model, PO, mice): 150 mg/kg
Duration of activity at maximum effect ([2]; Taxol model, PO, mice): 4 H
Level of activity (% of maximum effect-baseline) ([2]; Taxol model, PO, mice): 100%
Peak of activity (T) ([2]; Taxol model, PO, mice): 2-4 H
Dose of maximum activity [3]: 150 mg/kg
Duration of activity at maximum effect [3]: 4-6 H
Peak of activity (T) [3]: 2-3 H
Level of activity (% of maximum effect-baseline) ([3]; repeated daily administration): 66%
response time to heat (50° C.), Mean ([4]; 150 mg/kg, Day 0 Pre-Taxol): 28.5 s
response time to heat (50° C.), Mean ([4]; 150 mg/kg, Day 8, 1 h): 18.9* sec
response time to heat (50° C.), Mean ([4]; 150 mg/kg, Day 8, 2 h): 22.5* sec
response time to heat (50° C.), Mean ([4]; 150 mg/kg, Day 8, 4 h): 16.7 s
response time to heat (50° C.), Mean ([4]; 150 mg/kg, Day 8, 6 h): 13.8 s
response time to heat (50° C.), Mean ([4]; 150 mg/kg, Day 8 Pre-dosing): 11.1 s
response time to heat (50° C.), Mean ([4]; 150 mg/kg, Day 14, 1 h): 25.1* sec
response time to heat (50° C.), Mean ([4]; 150 mg/kg, Day 14, 2 h): 25.0 s
response time to heat (50° C.), Mean ([4]; 150 mg/kg, Day 14, 4 h): 25.1* sec
response time to heat (50° C.), Mean ([4]; 150 mg/kg, Day 14, 6 h): 18.7* sec
response time to heat (50° C.), Mean ([4]; 150 mg/kg, Day 14 Pre-dosing): 11.2 s
response time to heat (50° C.), Mean ([4]; 150 mg/kg, Day 17, No dosing): 11.5 s
period of increase in withdrawal force (von Frey) ([4]; Taxol mice, 150 mg/kg): 4 h
Dose of maximum activity ([4]; Taxol model, SC, mice): 150 mg/kg
Duration of activity at maximum effect ([4]; Taxol model, SC, mice): 4 H
Level of activity (% of maximum effect-baseline) ([4]; Taxol model, SC, mice): 100%
Peak of activity (T) ([4]; Taxol model, SC, mice): 2-4 H
